These are literature values, as cited in US12516015B2 (AMALIVE LIMITED, priority 2009, dated 2026).

Consider `O=C(O)Cc1ccccc1` [phenyl acetic acid], for which the pKa is given as roughly 4.28.
